# In patent US20240366560A1, “SMALL MOLECULE TREATMENT OF FATTY LIVER DISEASE AND HCC” (ScandiEdge Therapeutics AB, priority 2021, published 2024):
# Experiments:
# PKLR [1] = test: PKLR protein level by western blot in HepG2, 2-day drug treatment; type: cell-based; details: HepG2, two days of treatment, dosages per FIG. 5, P<0.05, FIG. 2A
# Description: WT HepG2 was included in this study and cultured by Roswell Park Memorial Institute (RPMI, […], Sigma Aldrich) 1640 Medium with 10% fetal bovine serum (FBS) and 1% penicillin-streptomycin (PS). To induce a steatosis model into WT HepG2 cells, high glucose Dulbecco's Modified Eagle Media (DMEM, […]/[…], Sigma-Aldrich) containing 10% FBS and 1% PS was used as medium for one week, together with 10 μg/mL insulin and 10 μM T0901317. All of cells were incubated in the incubator with 5% CO2 and 37° C. (Thermo […]). Fresh medium was provided every two days. As for drug-screening, different numbers of HepG2 cells were seeded for distinct experiments. More in details, 40,000 cells and 500,000 cells were used for 2-day-drug treatment in 96-well-plate and 6-well plate, respectively, while 80,000 cells and 300,000 cells were used for one-week drug treatment in 96-well plate and 6-well plate, respectively. […] Fresh medium was provided every two days. Protein content levels were detected by western blot. After the respective treatment of drugs, the cell pellets were lysed in cell lytic M, followed by protein extraction from supernatant (10 min, 13,000r/min centrifuge). Extracted cell lysate was stored in -20° C. Proteins were quantified through Bovine albumin serum (BAS) standard curve with protein assay dye reagent (BIO-RAD). The proteins were separated by SDS-PAGE with 100v in 90 min by mini-protein TGX precast gels (4-15%, 15 wells, 15 μl/well, BIO-RAD), and then transfer to Mini PVDF transfer package through transfer system (Transfer-Turbo, BIO-RAD). After 30 min blocking with 5% skim milk in cold room (4° C.) and washing with TBST, membrane was cut by the size of interested proteins. Primary antibodies were added into the corresponding membrane sections for overnight binding. Then the membranes were washed with TBST, and the secondary antibodies were incubated for 1 h in cold room. The following antibody were used: (Goat pAb to Rb lg, ab205718, abcam; Rb pAb to beta-actin, ab8227, abcam; […]; Rb pAb to fatty acid synthase, ab99539, abcam). The bindings were imaged by immunostaining and machine (ImageQuant LAS 500). All antibodies were purchased from Abcam online, and βactin was used as global normalized protein. After measurement, the strength of signal for each protein was quantified by ImageJ. The background noise was removed, and all results were normalized by the levels of β-actin. To determine the inhibitory effects of these drugs on the expression level of PKLR, HepG2 was selected as the in vitro model for coherence. […] HepG2 cells were treated with these drugs for two days with different dosages due to their potential cellular toxicities (FIG. 5), and the PKLR protein level was the measured by western blotting. The level of protein expression of PKLR of the drug-treated groups was compared to that of the Ctrl group after normalizing with β-actin.
# PKLR [2] = test: PKLR protein level by western blot in steatosis-induced HepG2, 7-day drug treatment; type: cell-based; details: steatosis-induced HepG2, 7 days of drug treatment, P<0.05, FIG. 2B
# Description: (§1) WT HepG2 was included in this study and cultured by Roswell Park Memorial Institute (RPMI, R2405, Sigma Aldrich) 1640 Medium with 10% fetal bovine serum (FBS) and 1% penicillin-streptomycin (PS). To induce a steatosis model into WT HepG2 cells, high glucose Dulbecco's Modified Eagle Media (DMEM, D0822/D5671, Sigma-Aldrich) containing 10% FBS and 1% PS was used as medium for one week, together with 10 μg/mL insulin and 10 μM T0901317. All of cells were incubated in the incubator with 5% CO2 and 37° C. (Thermo SCIENTIFIC). Fresh medium was provided every two days.
# (§2) As for drug-screening, different numbers of HepG2 cells were seeded for distinct experiments. More in details, 40,000 cells and 500,000 cells were used for 2-day-drug treatment in 96-well-plate and 6-well plate, respectively, while 80,000 cells and 300,000 cells were used for one-week drug treatment in 96-well plate and 6-well plate, respectively. Detailed drug dosages could be found in FIG. 5. Fresh medium was provided every two days.
# (§3) Protein content levels were detected by western blot. After the respective treatment of drugs, the cell pellets were lysed in cell lytic M, followed by protein extraction from supernatant (10 min, 13,000r/min centrifuge). Extracted cell lysate was stored in −20° C. Proteins were quantified through Bovine albumin serum (BAS) standard curve with protein assay dye reagent (BIO-RAD). The proteins were separated by SDS-PAGE with 100v in 90 min by mini-protein TGX precast gels (4-15%, 15 wells, 15 μl/well, BIO-RAD), and then transfer to Mini PVDF transfer package through transfer system (Transfer-Turbo, BIO-RAD). After 30 min blocking with 5% skim milk in cold room (4° C.) and washing with TBST, membrane was cut by the size of interested proteins. Primary antibodies were added into the corresponding membrane sections for overnight binding. Then the membranes were washed with TBST, and the secondary antibodies were incubated for 1 h in cold room. The following antibody were used: (Goat pAb to Rb lg, ab205718, abcam; Rb pAb to beta-actin, ab8227, abcam; anti-pklr, HPA006653, SIGMA; Rb pAb to fatty acid synthase, ab99539, abcam). The bindings were imaged by immunostaining and machine (ImageQuant LAS 500). All antibodies were purchased from Abcam online, and βactin was used as global normalized protein. After measurement, the strength of signal for each protein was quantified by ImageJ. The background noise was removed, and all results were normalized by the levels of β-actin.
# (§4) To further analyse the effect of these drugs on lipid accumulation via the DNL pathway, steatosis was induced to HepG2 by treating the cells with high glucose medium (DMEM), insulin and T0901317 (Hansmannel et al., 2006). […] Therefore, the effects of these two drugs on the de novo synthesis of lipids were investigated based on the steatosis-induced HepG2 model. […] Taken together, it was shown that BX-912 and JNK-IN-5A effectively alleviate the protein expression of PKLR and FASN as well as TG levels in HepG2 cell lines, and thus, it was decided to perform in vivo evaluations to test the effect of these two drugs.
# FASN [3] = test: FASN protein level by western blot in steatosis-induced HepG2, 7-day drug treatment; type: cell-based; details: steatosis-induced HepG2, 7 days of drug treatment, P<0.05, FIG. 2C
# Description: as §1, §2, §3, §4
# FASN [4] = details: high-glucose-cultured HepG2 cell model (Hosseini et al., 2020); cited from earlier work
# [5] = system: genes controlling fatty acid biosynthesis and Pcsk9; details: in vitro (Poirier et al., 2014); cited from earlier work
Compound,"protein expression of PKLR vs Ctrl, normalized with β-actin (PKLR [1])",protein expression level of PKLR (PKLR [2]),protein expression level of FASN (FASN [3]),expression level of Fasn (FASN [4]),expression level of a list of genes controlling fatty acid biosynthesis and Pcsk9 [5]
CCCS(=O)(=O)Nc1ccc(F)c(C(=O)c2c[nH]c3ncc(Cl)cc23)c1F [PLX-4720],significantly down-regulated,significantly decreased,significantly reduced,,
N#CC(c1ccnc(NCCc2cccnc2)n1)c1nc2ccccc2s1 (stereo not drawn) [AS-601245],significantly down-regulated,significantly decreased,,,
Nc1ncn([C@@H]2O[C@H](CO)[C@@H](O)[C@H]2O)c(=O)n1 [Azacitidine],significantly down-regulated,significantly decreased,significantly reduced,decreases,reduces
PF-477736,,significantly decreased,significantly reduced,,
O=C(NC(NC(=S)Nc1ccc(F)c([N+](=O)[O-])c1)C(Cl)(Cl)Cl)C(c1ccccc1)c1ccccc1 (stereo not drawn) [CGK-733],significantly down-regulated,,,,
CC(C)(C)c1nc(-c2cccc(NS(=O)(=O)c3c(F)cccc3F)c2F)c(-c2ccnc(N)n2)s1 [Dabrafenib],,significantly decreased,significantly reduced,,
